{
  "source": "patent US20240226025A1",
  "about": "“POLYNUCLEOTIDES ENCODING METHYLMALONYL-COA MUTASE FOR THE TREATMENT OF METHYLMALONIC ACIDEMIA” (ModernaTX, Inc., priority 2021, published 2024)",
  "tested_on": "CD-1 mice",
  "test": "Expression of luciferase induced by lipid nanoparticles in mice (bioluminescence)",
  "format": "in vivo, mouse",
  "conditions": "luciferase mRNA LNP",
  "protocol": "To further assess potency of expression and metabolic stability of lipids of the disclosure, expression of luciferase was measured following administration to rodents of a nanoparticle of the disclosure comprising an mRNA containing luciferase.\nLipid nanoparticles including DSPC as a phospholipid, cholesterol as a structural lipid, Compound I as a PEG lipid, an ionizable amino lipid of Formula (II), and an mRNA encoding luciferase were intravenously administered to CD-1 mice and Sprague Dawley rats. […]",
  "data": [
    {"smiles": "CCCCCCCCC(CCCCCCCC)OC(=O)CCCCCCCN(CCCCCCCC(=O)OCC(CCCC)CCCCCCC)CCCNc1c(NC)c(=O)c1=O", "note": "(stereo not shown) [Compound 10]", "values": [
      {"measurement": "Total Whole Body Flux @ 6 h (p/s)", "value": "4.6E+09", "unit": "p/s"}
    ]}
  ]
}
